We go through 2 compounds from US8906896B2, “Platinum acridine anti-cancer compounds and methods thereof” (priority 2008, dated 2014).

For series [1], the system named is NCI-H460 NSCLC cell line. Conditions: typical values; cited from earlier work.
Series [2] relates to NCI-H460 NSCLC cell line. Put plainly: Cytotoxicity (cell proliferation) assay, NCI-H460. It counts as cell-based.
Description: Cytotoxicity Assay. Cytotoxicity studies were carried out according to a standard protocol (Guddneppanavar et al. 2006) using the Celltiter 96 Aqueous Non-Radioactive Cell Proliferation Assay kit (Promega, Madison, Wis.). […] IC50 values were calculated from non-linear curve fits using a sigmoidal dose-response equation in GraphPad Prism (GraphPad Software, La Jolla, Calif.).
Series [3] can be described thus: H460 xenograft study in nude mice. It counts as in vivo. Conditions: female, athymic nude, mouse, in vivo, ip, q4d×3, mice; dose B stated to be close to the MTD; read-out: maximum tolerated dose (MTD). As for the experimental part:
(§1) Xenograft Study. H460 xenografts were established in nude athymic female mice via bilateral subcutaneous injections. Treatment began when the average tumor volume was approximately 100 mm^3. The tumor-bearing mice were randomized depending on tumor volume into three groups of five test animals each: one control group receiving vehicle only, one group treated at 0.1 mg/kg 5d/w×2 (A), and one group treated at 0.5 mg/kg q4d×3 (B). Animal weights and tumor volumes were measured and recorded for 17 days after the first dose was administered. Tumor volumes were determined using the formula:V (mm^3)=d^2×D/2, where d and D are the shortest and longest dimension of the tumor, respectively, and are reported as the sum of both tumors for each test animal. At the end of the study, all animals were euthanized and disposed of according to Standard Operating Procedures (SOPs). Statistical analysis of the growth curves was done using a non-linear polynomial random-coefficient model in SAS Proc Mixed (SAS Institute Inc., Cary, N.C.).
(§2) The antitumor activity of compound 14b was evaluated against H460 bilateral tumors implanted into athymic nude mice. […] Complex 14b was administered intraperitonealy (i.p.) according to the following dosing schedules: (A) 0.1 mg/kg, five days per week for two consecutive weeks (5d/w×2), and (B) 0.5 mg/kg, three doses given at 4-day intervals (q4d×3). The tumor volumes recorded in both treatment groups and in untreated control animals are plotted vs. days of treatment in FIG. 1. At the end of the study, the tumors measured 1834±160, 1798±309, and 1102±319 mm^3 (means±S.E.M.) for the control animals and animals treated according to schedules A and B, respectively.
(§3) Growth curves are shown for untreated control animals (open squares), and mice treated according to schedule A (filled triangles) and schedule B (filled circles). Measurement of tumor volumes began on day 0, and treatment began on day 4. Each data point represents the mean of 5 tumor volumes±S.E.M.

The test system of series [4] is H460 NSCLC tumors xenografted into nude mice. Briefly: H460 xenograft study in nude mice. It counts as in vivo. As for the experimental part: as §1, §2, §3

For `N.N.[Cl][Pt][Cl]` [Cisplatin, cis-diamminedichloroplatinum], in the series with NCI-H460 NSCLC cell line [1], the “IC50 in H460 cells (typical)” value is given as “micromolar range”. Also, the “potency in H460 cells relative to the compounds of the invention (fold less potent)” value with NCI-H460 NSCLC cell line [2] was “at least 20 fold”.

With `CC/C(=[N]\[Pt]([NH2])([NH2])[Cl])N(C)CCNc1c2ccccc2nc2ccccc12` [Compound 14b], in series [3], the MTD (commonly the highest dose tested that stayed within the study's limit of toxicity) at 17 days was approximately 0.5 mg/kg. Also, the “tolerated dose relative to cisplatin” value in series [4] (administered i.p.) is “an order of magnitude lower than those commonly applied for cisplatin”. For the same compound, the “effect on tumor growth” value in series [4] (schedule A: 0.1 mg/kg i.p. 5d/w×2) is recorded as “no effect on tumor growth”. In series [4] (schedule B: 0.5 mg/kg i.p. q4d×3, P<0.01), the “effect on tumor growth rate compared to control group” value is on record as “slowed the tumor growth rate significantly”.
